US20230219939A1, “N-(1-CYANO-PYRROLIDIN-3-YL)-5-(3-(TRIFLUOROMETHYL)PHENYL)OXAZOLE-2-CARBOXAMIDE DERIVATIVES AND THE CORRESPONDING OXADIAZOLE DERIVATIVES AS USP30 INHIBITORS FOR THE TREATMENT OF MITOCHONDRIAL DYSFUNCTION” (MISSION THERAPEUTICS LIMITED, priority 2020, published 2023)

What was measured:
hepatocytes = assay: Hepatocyte Cl human; format: in vitro ADME
Description: Hep Cl human: in vitro hepatocyte clearance in human cells.
Clu: in vitro clearance. Clu as defined here is the scaled clearance, in turn calculated from the intrinsic clearance. The intrinsic clearance is the predicted clearance due to hepatic metabolic reactions, determined from incubation of a compound in a hepatocyte preparation.

Mouse plasma stability = format: in vitro ADME
[1] = system: P-glycoprotein (human MDR1); assay: MDR1-MDCK flux assay; format: in vitro ADME, Canine; conditions: dog, read-out: MDR1-MDCK Effective efflux ratio
From the text: The treatment of CNS disorders, including Alzheimer's disease, Parkinson's disease, and other disorders described herein, requires drug molecules to target the brain, which requires adequate penetration of the blood brain barrier. […] The probability that a compound can cross the blood brain barrier may be measured by an in vitro flux assay utilizing a MDR1-MDCK cell monolayer (Madin-Darby Canine Kidney cells transfected with MDR-1 resulting in overexpression of the human efflux transporter P-glycoprotein). Additionally, exposure may also be measured directly in brain and plasma using in vivo animal models.
MDR1-MDCK (Madin-Darby Canine Kidney cell monolayer) (in vitro) flux assay.

PK mouse 2 mg/kg iv = format: in vivo; conditions: plasma, read-out: Cl plasma
From the text: Cl in vivo clearance: Pharmacokinetic measurement of the volume of plasma (or any matrix) from which a substance is completely removed per unit time.

[2] = Brain microdialysis PK 30 mg/kg PO mouse; format: in vivo
From the text: Kpuu is the ratio of unbound drug in brain to unbound drug in plasma and may be indicative of potential for treating peripheral and/or CNS indications.

[3] = Plasma binding, equilibrium dialysis; format: in vitro ADME; conditions: mouse plasma; read-out: Binding Mouse Plasma fu, p
From the text: Plasma fu,p: The free fraction of a compound in plasma preparation determined by in vitro equilibrium dialysis. It is understood that only unbound (free) compound is capable of engaging with the target.

UUO injured kidneys = assay: Unilateral ureteral obstructive kidney disease model (UUO); format: in vivo, C57BL/6 mice; conditions: 10 days
From the text: UUO causes renal injury characterised by tubular cell injury, interstitial inflammation and fibrosis. It serves as a model of irreversible post-renal acute kidney injury (AKI). Experimental UUO has illustrated the molecular mechanisms of apoptosis, inflammation and fibrosis, all of which are key processes in renal injury, regardless of the primary insult. Consequently, the UUO model provides investigators information beyond obstruction (Chevalier et al, 2009, Kidney Int 75(11): 1145-1152). Example 1 was assessed in the UUO model to determine the ability of the compound to attenuate progressive tubulointerstitial fibrosis and chronic kidney disease (CKD). On day 1 of the study, adult C57BL/6 mice were dosed by oral gavage according to one of the following dosing regimens; Vehicle or 15 mg/kg Example 1 (p.o.) BID. Two hours post dosing on day 1 study mice underwent surgery to ligate the left ureter at two points. Successful UUO surgery was later confirmed by observation of dilation of renal pelvis due to hydronephrosis. The animals were dosed according to their prescribed regimen for 10 days at which point kidneys were harvested, or histopathology assessment and for protein/RNA assessment. Picrosirius Red staining was performed to assess the extent of collagen deposition and IHC was employed to assess relative α-Smooth Muscle Actin (α-SMA) expression.

Cathepsin S = Cathepsin S (Homo sapiens, UniProt P25774); assay: Cathepsin S IC50; format: biochemical
Sequence of Cathepsin S (P25774 115-331, species assumed): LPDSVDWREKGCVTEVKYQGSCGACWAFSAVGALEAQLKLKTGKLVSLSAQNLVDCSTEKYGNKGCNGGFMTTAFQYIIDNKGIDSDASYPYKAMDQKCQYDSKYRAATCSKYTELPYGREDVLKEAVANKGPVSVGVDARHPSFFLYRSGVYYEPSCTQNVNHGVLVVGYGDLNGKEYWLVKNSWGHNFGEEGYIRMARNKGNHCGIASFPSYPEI

Cathepsin L = Cathepsin L (Homo sapiens, UniProt P07711); assay: Cathepsin L IC50; format: biochemical; conditions: read-out: Cathepsin IC50 (μM) Cathepsin L
Sequence of Cathepsin L (P07711 114-333, species assumed): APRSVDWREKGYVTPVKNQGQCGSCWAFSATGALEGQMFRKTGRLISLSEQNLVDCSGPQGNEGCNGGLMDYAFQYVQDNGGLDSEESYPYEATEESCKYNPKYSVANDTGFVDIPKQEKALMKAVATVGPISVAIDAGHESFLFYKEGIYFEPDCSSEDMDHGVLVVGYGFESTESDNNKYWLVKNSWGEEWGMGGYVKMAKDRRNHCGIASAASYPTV

[4] = WT-MDCK (wild-type) in vitro flux; format: in vitro ADME; conditions: dog
From the text: WT-MDCK (wild-type) in vitro flux.

Cathepsin K = molecular target: T1, Cathepsin K (Homo sapiens, UniProt P43235); assay: Cathepsin K IC50; format: biochemical
T1 sequence (P43235 115-329): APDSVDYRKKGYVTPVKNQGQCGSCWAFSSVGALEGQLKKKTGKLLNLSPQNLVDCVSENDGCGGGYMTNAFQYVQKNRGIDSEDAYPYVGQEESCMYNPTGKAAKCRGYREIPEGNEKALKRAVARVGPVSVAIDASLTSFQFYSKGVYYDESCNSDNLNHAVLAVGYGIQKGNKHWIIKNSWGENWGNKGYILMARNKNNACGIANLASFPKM

## COC[C@@H]1C[C@@H](NC(=O)c2ncc(-c3cccc(C(F)(F)F)c3)o2)CN1C#N [Example 1, N-((3R,5S)-1-Cyano-5-(methoxymethyl)-pyrrolidin-3-yl)-5-(3-(trifluoromethyl)phenyl)oxazole-2-carboxamide]
hepatocytes
  Hepatocyte Cl human Scaled Clu: 10.3 mL/min/kg
Mouse plasma stability
  plasma stability compared to Reference Example B (in words): significantly improved plasma stability
Mouse plasma stability; mouse plasma, read-out: Stability Mouse plasma t1/2
  half-life: 359 min
[1]
  efflux ratio: 1.2
PK mouse 2 mg/kg iv
  clearance: 19 mL/min/kg
[2]; Brain microdialysis PK 30 mg/kg PO - mouse
  Kp uu: 1.2
[2]; Brain microdialysis PK 30 mg/kg PO mouse
  pre-frontal cortex Cmax, u/cell TOM20-Ub: 23-fold
[3]
  fraction unbound: 0.12
UUO injured kidneys; 15 mg/kg oral BID, vs vehicle treated controls
  α-SMA levels in UUO injured kidneys (IHC): statistical reduction in α-SMA levels
UUO injured kidneys; 15 mg/kg p.o. BID, vs vehicle
  collagen deposition (picrosirius red staining) in ligated kidneys: statistically reduced collagen deposition
Cathepsin S
  IC50: 138 µM
Cathepsin L
  IC50: 30.4 µM
[4]
  efflux ratio: 0.8
[4]; A-B
  Papp A→B: 11.8 ×10⁻⁶ cm/s
Cathepsin K
  IC50: 10.2 µM
